What is called melting point is the temperature of the solid-liquid transition.

Where a name gives a salt, the structure may show the parent alone.

The values below come from patent US6821962B2, “Quinoline and quinoxaline compounds which inhibit platelet-derived growth factor and /or p56lck tyrosine kinases” (Aventis Pharmaceuticals Inc., priority 1997, dated 2004).

Fyn, sequence (P06241 whole entry, species assumed): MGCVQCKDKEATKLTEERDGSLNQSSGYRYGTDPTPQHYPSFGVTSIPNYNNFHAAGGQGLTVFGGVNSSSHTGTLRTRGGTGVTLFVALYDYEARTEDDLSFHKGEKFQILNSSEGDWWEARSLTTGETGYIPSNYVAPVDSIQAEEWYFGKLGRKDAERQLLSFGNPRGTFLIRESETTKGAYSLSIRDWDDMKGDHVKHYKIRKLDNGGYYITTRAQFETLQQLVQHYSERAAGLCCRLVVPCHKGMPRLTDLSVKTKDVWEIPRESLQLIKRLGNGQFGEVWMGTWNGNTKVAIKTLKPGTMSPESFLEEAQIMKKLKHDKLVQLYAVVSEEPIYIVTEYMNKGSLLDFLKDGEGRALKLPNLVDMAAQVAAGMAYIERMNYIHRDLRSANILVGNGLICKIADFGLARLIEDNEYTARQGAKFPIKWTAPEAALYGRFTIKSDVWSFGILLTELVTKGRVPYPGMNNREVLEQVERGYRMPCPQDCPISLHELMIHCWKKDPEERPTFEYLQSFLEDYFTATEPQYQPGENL

In one data set the target is Lck (Homo sapiens, UniProt P06239). As to conditions: background, literature report; cited from earlier work.
Lck, sequence (P06239 whole entry, species assumed): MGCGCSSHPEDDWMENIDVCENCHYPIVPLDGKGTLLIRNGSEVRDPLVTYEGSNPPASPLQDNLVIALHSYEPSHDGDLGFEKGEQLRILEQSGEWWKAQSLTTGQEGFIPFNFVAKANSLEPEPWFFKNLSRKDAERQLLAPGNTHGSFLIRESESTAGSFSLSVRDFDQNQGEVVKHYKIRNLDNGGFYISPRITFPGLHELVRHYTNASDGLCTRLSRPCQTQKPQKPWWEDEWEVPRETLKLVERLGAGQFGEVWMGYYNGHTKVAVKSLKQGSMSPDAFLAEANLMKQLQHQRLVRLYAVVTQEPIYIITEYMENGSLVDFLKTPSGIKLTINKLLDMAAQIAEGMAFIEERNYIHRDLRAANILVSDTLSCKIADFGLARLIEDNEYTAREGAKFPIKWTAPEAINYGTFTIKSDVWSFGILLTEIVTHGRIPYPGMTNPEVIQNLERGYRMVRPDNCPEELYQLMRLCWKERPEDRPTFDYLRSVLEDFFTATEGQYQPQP
`Cc1ccc(-c2nn(C(C)(C)C)c3ncnc(N)c23)cc1` [PP1]: the “potency against Lck (in words)” value is listed as “low nanomolar”.

Test system in a further data set: not given
Conditions: not given
For `CC(C)Oc1ccc2nc(Nc3ccccc3)cnc2c1.Cl`, the melting point is 205 to 210 °C (dec.).

With `COc1cc2ncc(CNC3CCCCC3)nc2cc1OC` (as salt: HCl) [Example 11, Cyclohexyl-(6,7-dimethoxyquinoxalin-2-ylmethyl)-amine], the melting point was 185 to 190 °C (dec.).

Take `COc1cc2ncc(NC3CCCCC3)nc2cc1OC` [Example 3, 2-cyclohexylamino-6,7-dimethoxyquinoxaline]: the melting point fell in the range of 188 to 189.5 °C.

The compound `Oc1ccc2nc(Nc3ccccc3)cnc2c1` [Example 8, 2-Anilino-6-quinoxalinol] displayed a melting point of 211 to 213 °C.

In turn, `c1ccc(Nc2cnc3cc(O[C@@H]4CCOC4)ccc3n2)cc1` [Example 9, Phenyl-[6-(tetrahydrofuran-3-(R)-yl-oxy)quinoxalin-2-yl]amine] had a melting point of 173 to 175 °C.

For `COc1cc2ncc(OC3CCCCC3)nc2cc1OC1CCCCC1` [Example 10, 2,7-Bis-cyclohexyloxy-6-methoxy-quinoxaline], the melting point fell in the range of 75 to 78 °C.

`COc1cc2cc(NCC(C)(C)CO)cnc2cc1OC` [Example 13, 3-(6,7-Dimethoxyquinolin-3-yl-amino)-2,2-dimethyl-propan-1-ol] registered a melting point of 170 to 173.5 °C.

For `COc1cc2ncc(NC3CCCCC3)nc2cc1N1CCOCC1` [Example 14, Cyclohexyl-(6-methoxy-7-morpholin-4-yl-quinoxalin-2-yl)-amine], the melting point was in the range of 194 to 196 °C.

Regarding `COc1cc2ncc(N[C@@H]3C[C@H]4CC[C@@H]3C4)nc2cc1OC` [Example 22, (1R,2R,4S)-(+)-Bicyclo[2.2.1]hept-2-yl-(6,7-dimethoxyquinoxalin-2-yl)-amine], the melting point was 184 to 186 °C.

A further data set has as its target Fyn (Homo sapiens, UniProt P06241). As to conditions: background, literature report (Hanke et al.); cited from earlier work.
With `Cc1ccc(-c2nn(C(C)(C)C)c3ncnc(N)c23)cc1` [PP1], the “potency against Fyn (in words)” value is given as “low nanomolar”.
